Drawing on patent US12202835B2, “Substituted aromatic ring-linked dioxinoquinazolines and dioxinoquinolines as kinase inhibitors” (BEIJING SCITECH-MQ PHARMACEUTICALS LIMITED, priority 2018, dated 2025), this text covers IC50 for seven molecules.

What all share (assay type): biochemical
The target of one test is TRKA kinase (Homo sapiens (Human), UniProt P04629). Description: Assay of small molecular compounds for inhibiting the activity of TRKA kinase (LANCE TR-FRET). The method, then: The assay of small molecular compounds for inhibiting the activity of TRKA kinase is based on the LANCE TR-FRET technology of Perkin Elmer Inc., and the assay method is as follows: • 1. […] 2.5 μL of the gradient-diluted compounds were taken with a transfer pipette to a 384-well plate. • 3. Addition of enzyme: 5 μL of 2×TRKA kinase solution (with a concentration of 2 nM) was taken with a transfer pipette to the corresponding reaction well of the 384-well plate, mixed well and pre-reacted at room temperature for 5 minutes. • 4. 2.5 μL 4× Ultra ULight-labeled TK Peptide (with a concentration of 400 nM)/ATP (with a concentration of 40 μM) mixture was taken with a transfer pipette to the corresponding reaction well of the 384-well plate. • 5. Negative control: 2.5 μL/well 4× substrate/ATP mixture and 7.5 μL 1× Kinase Assay Buffer were added to the wells of the 384-well plate.
(§1) Positive control: 2.5 μL/well 4× substrate/ATP mixture, 2.5 μL/well 1× Kinase Assay Buffer containing 4% DMSO, and 5 μL/well 2×TRKA kinase solution were added to the 384-well plate. The final concentration of DMSO in the reaction system was 1%. • 6. The mixture was mixed well and then centrifuged and reacted at room temperature in dark for 60 min. • 7. Termination of the enzymatic reaction: 5 μL of 4× stop solution was taken with a transfer pipette to the wells of the 384-well plate, mixed and then centrifuged, and reacted at room temperature for 5 min. • 8. Development of the reaction: 5 μL of 4× detection solution was taken with a transfer pipette to the wells of the 384-well plate for color development, and the mixture was mixed and then centrifuged and reacted at room temperature for 60 min. • 9. The 384-well plate was placed into the Envision plate reader and the signal was detected using the appropriate program.

The next test concerns the target MER kinase (Homo sapiens (Human), UniProt Q12866). Briefly: Assay of small molecular compounds for inhibiting the activity of MER kinase (LANCE TR-FRET). The method, then:
The assay of small molecular compounds for inhibiting the activity of MER kinase is based on the LANCE TR-FRET technology of Perkin Elmer Inc., and the assay method is as follows: • 1. Dilution of compounds: a total of 11 concentrations were obtained using a 3-fold gradient dilution from the highest concentration of 2500 nM (the maximum final concentration of the drug used in this assay was 2500 nM, and the minimum final concentration was 0.042 nM). • 2. 2.5 μL of the gradient-diluted compounds were taken with a transfer pipette to a 384-well plate. • 3. Addition of enzyme: 5 μL of 2×MER kinase solution (with a concentration of 1 nM) was taken with a transfer pipette to the corresponding reaction well of the 384-well plate, mixed well and pre-reacted at room temperature for 5 minutes. • 4. 2.5 μL 4× ULight-labeled Ploy GT (with a concentration of 200 nM)/ATP (with a concentration of 20 μM) mixture was taken with a transfer pipette to the corresponding reaction well of the 384-well plate. • 5. Negative control: 2.5 μL/well 4× substrate/ATP mixture and 7.5 μL 1× Kinase Assay Buffer were added to the wells of the 384-well plate.
as §1, with “2×MER” for “2×TRKA”, “program. • 10. Analysis and processing of the raw data:” for “program.”
The drug concentrations and the corresponding inhibition rates were input into GraphPad Prism5 for calculation, and the inhibition rate of the compounds were calculated as follows: inhibition rate (%)=(reading of positive well−reading of experimental well)/(reading of positive control well−reading of negative control well)×100%. Processing with GraphPad Prism5 software yielded the corresponding IC50 values (the concentration of the compound at which 50% of the highest inhibition of the enzyme is achieved).
(In general: In TR-FRET formats the signal depends on donor and acceptor labels being close together.)

In the next test the target is c-MET kinase (Homo sapiens (Human), UniProt P08581). Briefly: Assay of small molecular compounds for inhibiting the activity of c-MET kinase (LANCE TR-FRET). Conditions: read-out: CMET IC50. As to the method: The assay is based on the LANCE TR-FRET technology of Perkin Elmer Inc., and the assay method is as follows: • 1. Dilution of compounds: a total of 11 concentrations were obtained using a 3-fold gradient dilution from the highest concentration of 2500 nM (the maximum final concentration of the drug used in this assay was 2500 nM, and the minimum final concentration was 0.042 nM). • 2. 2.5 μL of the gradient-diluted compounds were taken with a transfer pipette to a 384-well plate. • 3. Addition of enzyme: 5 μL of 2×c-MET kinase solution (with a concentration of 2 nM) was taken with a transfer pipette to the corresponding reaction well of the 384-well plate, mixed well and pre-reacted at room temperature for 5 minutes. • 4. 2.5 μL 4× Ultra ULight™-JAK-1 (Tyr1023) Peptide (with a concentration of 400 nM)/ATP (with a concentration of 40 μM) mixture was taken with a transfer pipette to the corresponding reaction well of the 384-well plate. • 5. Negative control: 2.5 μL/well 4× substrate/ATP mixture and 7.5 μL 1× Kinase Assay Buffer were added to the wells of the 384-well plate. • 6. Positive control: 2.5 μL/well 4× substrate/ATP mixture, 2.5 μL/well 1× Kinase Assay Buffer containing 16% DMSO, and 5 μL/well 2× c-MET kinase solution were added to the 384-well plate. The final concentration of DMSO in the reaction system was 4%. • 7. The mixture was mixed well and then centrifuged and reacted at room temperature in dark for 60 min. • 8. Termination of the enzymatic reaction: 5 μL of 4× stop solution was taken with a transfer pipette to the wells of the 384-well plate, mixed and then centrifuged, and reacted at room temperature for 5 min. • 9. Development of the reaction: 5 μL of 4× detection solution was taken with a transfer pipette to the wells of the 384-well plate for color development, and the mixture was mixed and then centrifuged and reacted at room temperature for 60 min. • 10. The 384-well plate was placed into the Envision plate reader and the signal was detected using the appropriate program. • 11. Analysis and processing of the raw data: • 12. The drug concentrations and the corresponding inhibition rates were input into GraphPad Prism5 for calculation, and the inhibition rate of the compounds were calculated as follows: inhibition rate (%)=(reading of positive well−reading of experimental well)/(reading of positive control well−reading of negative control well)×100%. Processing with GraphPad Prism5 software yielded the corresponding IC50 values (the concentration of the compound at which 50% of the highest inhibition of the enzyme is achieved).
Sequence of c-MET kinase (P08581 25-1390): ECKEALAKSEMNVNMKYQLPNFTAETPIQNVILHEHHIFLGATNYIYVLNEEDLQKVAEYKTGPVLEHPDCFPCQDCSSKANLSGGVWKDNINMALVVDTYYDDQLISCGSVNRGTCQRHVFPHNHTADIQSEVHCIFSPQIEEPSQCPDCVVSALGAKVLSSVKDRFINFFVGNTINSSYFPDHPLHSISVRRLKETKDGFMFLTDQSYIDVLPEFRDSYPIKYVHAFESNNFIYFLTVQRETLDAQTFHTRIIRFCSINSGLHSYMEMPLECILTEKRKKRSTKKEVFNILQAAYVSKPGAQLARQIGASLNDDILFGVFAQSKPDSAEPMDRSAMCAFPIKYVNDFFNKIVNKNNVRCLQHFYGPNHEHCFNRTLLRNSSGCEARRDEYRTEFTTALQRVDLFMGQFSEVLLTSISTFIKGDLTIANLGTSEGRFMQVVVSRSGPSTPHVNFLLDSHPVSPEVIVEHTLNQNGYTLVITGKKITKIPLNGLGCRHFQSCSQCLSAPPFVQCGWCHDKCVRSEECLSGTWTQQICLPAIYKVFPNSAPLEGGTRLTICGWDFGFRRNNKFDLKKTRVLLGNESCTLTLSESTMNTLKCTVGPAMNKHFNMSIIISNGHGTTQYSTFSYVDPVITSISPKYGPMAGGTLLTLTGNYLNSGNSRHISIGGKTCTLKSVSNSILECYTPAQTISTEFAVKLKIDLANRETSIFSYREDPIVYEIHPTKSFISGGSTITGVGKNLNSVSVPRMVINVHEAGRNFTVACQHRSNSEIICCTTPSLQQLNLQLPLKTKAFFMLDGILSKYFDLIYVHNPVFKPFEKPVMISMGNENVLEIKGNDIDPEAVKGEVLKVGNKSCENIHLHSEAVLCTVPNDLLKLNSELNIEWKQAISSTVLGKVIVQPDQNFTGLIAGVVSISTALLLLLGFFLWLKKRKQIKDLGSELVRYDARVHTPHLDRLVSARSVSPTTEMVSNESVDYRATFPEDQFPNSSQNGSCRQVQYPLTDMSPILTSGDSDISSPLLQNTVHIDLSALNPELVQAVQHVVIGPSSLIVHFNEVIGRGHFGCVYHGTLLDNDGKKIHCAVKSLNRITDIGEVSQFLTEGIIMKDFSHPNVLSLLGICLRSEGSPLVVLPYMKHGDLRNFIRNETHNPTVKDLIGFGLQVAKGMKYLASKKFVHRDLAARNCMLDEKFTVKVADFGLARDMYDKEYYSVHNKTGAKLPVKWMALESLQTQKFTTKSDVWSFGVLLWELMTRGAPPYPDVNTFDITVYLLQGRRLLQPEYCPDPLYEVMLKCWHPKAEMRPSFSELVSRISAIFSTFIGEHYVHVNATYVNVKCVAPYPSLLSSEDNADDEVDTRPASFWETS

Sequence of TRKA kinase (P04629 33-796): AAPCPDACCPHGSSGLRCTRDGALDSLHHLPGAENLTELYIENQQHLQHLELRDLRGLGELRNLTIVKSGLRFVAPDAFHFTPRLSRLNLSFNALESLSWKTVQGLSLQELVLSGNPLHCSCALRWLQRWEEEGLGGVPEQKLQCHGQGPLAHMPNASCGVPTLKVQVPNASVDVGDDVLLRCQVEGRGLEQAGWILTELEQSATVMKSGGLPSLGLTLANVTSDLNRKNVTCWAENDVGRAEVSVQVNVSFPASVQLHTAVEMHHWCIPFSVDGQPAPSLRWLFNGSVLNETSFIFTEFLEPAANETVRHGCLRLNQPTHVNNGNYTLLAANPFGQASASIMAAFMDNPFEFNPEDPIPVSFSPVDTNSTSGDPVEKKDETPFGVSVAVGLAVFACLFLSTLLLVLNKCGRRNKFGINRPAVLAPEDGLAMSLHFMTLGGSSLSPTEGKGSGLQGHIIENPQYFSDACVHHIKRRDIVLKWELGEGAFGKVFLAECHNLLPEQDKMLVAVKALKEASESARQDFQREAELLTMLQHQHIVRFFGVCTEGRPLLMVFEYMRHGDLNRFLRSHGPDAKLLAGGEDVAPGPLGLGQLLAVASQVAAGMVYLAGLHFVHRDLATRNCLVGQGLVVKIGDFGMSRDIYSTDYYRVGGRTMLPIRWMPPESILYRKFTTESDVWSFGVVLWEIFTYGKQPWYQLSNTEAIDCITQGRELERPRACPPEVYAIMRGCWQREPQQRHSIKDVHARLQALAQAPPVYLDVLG
Sequence of MER kinase (Q12866 21-999): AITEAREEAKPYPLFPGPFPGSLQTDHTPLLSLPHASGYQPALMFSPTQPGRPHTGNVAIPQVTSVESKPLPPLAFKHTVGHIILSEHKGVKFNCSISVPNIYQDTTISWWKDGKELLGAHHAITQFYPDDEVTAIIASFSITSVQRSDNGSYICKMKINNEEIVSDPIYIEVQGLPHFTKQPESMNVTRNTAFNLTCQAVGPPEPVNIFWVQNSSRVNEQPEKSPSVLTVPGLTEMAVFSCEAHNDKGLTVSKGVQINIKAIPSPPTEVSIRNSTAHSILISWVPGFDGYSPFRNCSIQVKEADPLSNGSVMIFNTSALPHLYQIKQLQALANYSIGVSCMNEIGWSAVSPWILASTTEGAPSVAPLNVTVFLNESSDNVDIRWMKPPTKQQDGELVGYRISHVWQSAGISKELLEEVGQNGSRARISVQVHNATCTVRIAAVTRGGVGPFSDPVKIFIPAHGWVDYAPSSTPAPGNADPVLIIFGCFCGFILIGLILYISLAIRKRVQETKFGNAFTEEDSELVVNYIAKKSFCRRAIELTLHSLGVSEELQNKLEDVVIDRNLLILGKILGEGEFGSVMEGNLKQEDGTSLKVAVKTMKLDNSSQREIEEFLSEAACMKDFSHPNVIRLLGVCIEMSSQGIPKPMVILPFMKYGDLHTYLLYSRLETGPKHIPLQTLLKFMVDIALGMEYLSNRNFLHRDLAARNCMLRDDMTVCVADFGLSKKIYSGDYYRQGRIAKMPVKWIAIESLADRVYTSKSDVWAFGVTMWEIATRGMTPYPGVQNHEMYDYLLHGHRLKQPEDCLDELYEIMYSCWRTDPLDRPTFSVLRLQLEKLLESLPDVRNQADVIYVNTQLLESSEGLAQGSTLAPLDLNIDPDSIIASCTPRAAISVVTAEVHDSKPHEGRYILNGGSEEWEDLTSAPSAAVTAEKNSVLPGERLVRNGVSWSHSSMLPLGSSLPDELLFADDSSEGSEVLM

Regarding `COc1cc2nccc(Oc3ccc(NC(=O)c4cn(CCCN5CCOCC5)c(=O)n(-c5ccc(F)cc5)c4=O)cc3F)c2c2c1OCCO2` [Example 102, N-(3-fluoro-4-((5-methoxy-2,3-dihydro-[1,4]dioxino[2,3-f]quinolin-10-yl)oxy)phenyl)-3-(4-fluorophenyl)-1-(3-morpholinopropyl)-2,4-dioxo-1,2,3,4-tetrahydropyrimidine-5-carboxamide], the results for the IC50 at TRKA kinase, at MER kinase and on c-MET kinase were 50 to 500 nM, no more than 50 nM and no more than 50 nM, respectively.

Regarding `COc1cc2nccc(Oc3ccc(NC(=O)c4cn(C(C)C)c(=O)n(-c5ccc(C)cc5)c4=O)cc3F)c2c2c1OCCO2` [Example 107, N-(3-fluoro-4-((5-methoxy-2,3-dihydro-[1,4]dioxino[2,3-f]quinolin-10-yl)oxy)phenyl)-3-(4-methylphenyl)-1-isopropyl-2,4-dioxo-1,2,3,4-tetrahydropyrimidine-5-carboxamide], the IC50 at TRKA kinase is 500 to 5000 nM; at MER kinase, no more than 50 nM; on c-MET kinase, 50 to 500 nM.

As to `COc1cc2nccc(Oc3ccc(NC(=O)c4cn(C(C)C)c(=O)n(-c5ccc(Cl)cc5)c4=O)cc3F)c2c2c1OCCO2` [Example 108, N-(3-fluoro-4-((5-methoxy-2,3-dihydro-[1,4]dioxino[2,3-f]quinolin-10-yl)oxy)phenyl)-3-(4-chlorophenyl)-1-isopropyl-2,4-dioxo-1,2,3,4-tetrahydropyrimidine-5-carboxamide], the IC50 lay in the range of 500 to 5000 nM at TRKA kinase, 50 to 500 nM at MER kinase and 50 to 500 nM at c-MET kinase.

For `COc1cc2nccc(Oc3ccc(NC(=O)c4cn(C(C)C)c(=O)n(-c5ccccc5F)c4=O)cc3F)c2c2c1OCCO2` [Example 110, N-(3-fluoro-4-((5-methoxy-2,3-dihydro-[1,4]dioxino[2,3-f]quinolin-10-yl)oxy)phenyl)-3-(2-fluorophenyl)-1-isopropyl-2,4-dioxo-1,2,3,4-tetrahydropyrimidine-5-carboxamide], the figures for the IC50 against TRKA kinase, against MER kinase and at c-MET kinase were 500 to 5000 nM, no more than 50 nM and no more than 50 nM, respectively.

Take `COc1cc2nccc(Oc3ccc(NC(=O)c4cn(C(C)C)c(=O)n(Cc5ccc(F)cc5)c4=O)cc3F)c2c2c1OCCO2` [Example 111, N-(3-fluoro-4-((5-methoxy-2,3-dihydro-[1,4]dioxino[2,3-f]quinolin-10-yl)oxy)phenyl)-3-(4-fluorobenzyl)-1-isopropyl-2,4-dioxo-1,2,3,4-tetrahydropyrimidine-5-carboxamide]: the figures for the IC50 against TRKA kinase, against MER kinase and at c-MET kinase were 500 to 5000 nM, 50 to 500 nM and 500 to 5000 nM, respectively.

On to `COc1cc2nccc(Oc3cc(Cl)c(NC(=O)c4cn(C(C)C)c(=O)n(-c5ccc(F)cc5)c4=O)cc3F)c2c2c1OCCO2` [Example 118, N-(2-chloro-5-fluoro-4-((5-methoxy-2,3-dihydro-[1,4]dioxino[2,3-f]quinolin-10-yl)oxy)phenyl)-3-(4-fluorophenyl)-1-isopropyl-2,4-dioxo-1,2,3,4-tetrahydropyrimidine-5-carboxamide], for which the IC50 against TRKA kinase, on MER kinase and at c-MET kinase was 50 to 500 nM throughout.

As for `Cn1cc(C(=O)Nc2ccc(Oc3ccnc4cc(OCCCC#N)c5c(c34)OCCO5)cc2Cl)c(=O)n(-c2ccc(F)cc2)c1=O` [Example 133, N-(2-chloro-4-((5-(3-cyanopropoxy)-2,3-dihydro-[1,4]dioxino[2,3-f]quinolin-10-yl)oxy)phenyl)-3-(4-fluorophenyl)-1-methyl-2,4-dioxo-1,2,3,4-tetrahydropyrimidine-5-carboxamide], the results for the IC50 against TRKA kinase, against MER kinase and on c-MET kinase were 50 to 500 nM, 500 to 5000 nM and no more than 50 nM, respectively.

The term IC50 denotes the concentration at which inhibition is half-maximal.
